Measured values from US9133157B2, “HIV protease inhibitors” (Merck Canada Inc., priority 2011, dated 2015).

Molecular target: WT HIV-1 protease (Human immunodeficiency virus type 1 group M subtype B (isolate HXB2) (HIV-1), UniProt P04585)
Test: Assay for inhibition of microbial expressed HIV protease (Procedure A, peptide substrate, HPLC fluorescence detection)
Type: biochemical
Conditions: WT HIV-1 protease 10 pM, substrate 400 micromolar, pH 5.5, 30 min preincubation, 1 hour at 30° C.; read-out: Enzyme inhibition IC50
Method in brief: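 E. coli-expressed enzyme preincubated 30 min at room temperature with compound in 50 mM sodium acetate pH 5.5, 100 mM NaCl, 0.1% BSA. Reaction ran 1 h at 30° C with 400 micromolar Val-Ser-Gln-Asn-(betanaphthyl)Ala-Pro-Ile-Val substrate and 10 picomolar protease. After phosphoric acid quench, product was measured by C18 HPLC with fluorescence (ex 270/em 330 nm).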

Molecule | IC50 [nM]
COC(=O)N[C@H](C(=O)N[C@H](c1ccc([C@@H](CO)N(CCC(C)(C)C)S(=O)(=O)c2ccn3ncnc3c2)s1)C(F)(F)F)C(c1ccccc1)c1ccccc1 [Example 120, N-[(1S)-1-(5-{(1R)-1-[(3,3-dimethylbutyl)([1,2,4]triazolo[1,5-a]pyridin-7-ylsulfonyl)amino]-2-hydroxyethyl}thiophen-2-yl)-2,2,2-trifluoroethyl]-Nalpha-(methoxycarbonyl)-beta-phenyl-L-phenylalaninamide] | 3
COC(=O)N[C@H](C(=O)N[C@H](c1ccc([C@@H](CO)N(CCC(C)(C)C)S(=O)(=O)c2cn3ccnc3cn2)s1)C(F)(F)F)C(c1ccccc1)c1ccccc1 [Example 122, N-[(1S)-1-(5-{(1R)-1-[(3,3-dimethylbutyl)(imidazo[1,2-a]pyrazin-6-ylsulfonyl)amino]-2-hydroxyethyl}thiophen-2-yl)-2,2,2-trifluoroethyl]-Nα-(methoxycarbonyl)-β-phenyl-L-phenylalaninamide] | 5.78
COC(=O)N[C@H](C(=O)NCc1ccc([C@@H](CO)N(CC(C)C)S(=O)(=O)c2ccc3ncsc3c2)s1)C(c1ccccc1)c1ccccc1 [Example 123, N-[(5-{(1R)-1-[(1,3-benzothiazol-6-ylsulfonyl)(2-methylpropyl)amino]-2-hydroxyethyl}thiophen-2-yl)methyl]-Nα-(methoxycarbonyl).-β-phenyl-L-phenylalaninamide] | 6.3
CC(C)CN(C(CO)c1ccc(CNC(=O)C(NC(=O)c2ccccc2)C(c2ccccc2)c2ccncc2F)s1)S(=O)(=O)c1ccc2ncsc2c1 (centres unmarked) [Example 124, N-[1-[[5-[1-(1,3-benzothiazol-6-ylsulfonyl(isobutyl)amino)-2-hydroxy-ethyl]-2-thienyl]methylcarbamoyl]-2-(3-fluoro-4-pyridyl)-2-phenyl-ethyl]benzamide] | 568
CC(C)CN(C(CO)c1ccc(CNC(=O)C(NC(=O)c2ccccc2)C(c2ccccc2)c2ccnc3ccccc23)s1)S(=O)(=O)c1ccc2ncsc2c1 (centres unmarked) [Example 125, N-[1-[[5-[1-(1,3-benzothiazol-6-ylsulfonyl(isobutyl)amino)-2-hydroxy-ethyl]-2-thienyl]methylcarbamoyl]-2-phenyl-2-(4-quinolyl)ethyl]benzamide] | 409
CC(C)CN(C(CO)c1ccc(CNC(=O)C(NC(=O)c2ccccc2)C(c2ccccc2)c2c[nH]c3ncccc23)s1)S(=O)(=O)c1ccc2ncsc2c1 (centres unmarked) [Example 126, N-[1[[5-[1-(1,3-benzothiazol-6-ylsulfonyl(isobutyl)amino)-2-hydroxy-ethyl]-2-thienyl]methylcarbamoyl]-2-phenyl-2-(1H-pyrrolo[2,3-b]pyridin-3-yl)ethyl]benzamide] | 4
CC(C)CN(C(CO)c1ccc(CNC(=O)C(NC(=O)c2ccccc2)C(c2ccccc2)c2cn(C)c3ccccc23)s1)S(=O)(=O)c1ccc2ncsc2c1 (centres unmarked) [Example 127, N-[1-[[5-[1-(1,3-benzothiazol-6-ylsulfonyl(isobutyl)amino)-2-hydroxy-ethyl]-2-thienyl]methylcarbamoyl]-2-(1-methylindol-3-yl)-2-phenyl-ethyl]benzamide] | 8
CC(C)CN(C(CO)c1ccc(CNC(=O)C(NC(=O)c2ccccc2)C(c2ccccc2)c2ccccc2)s1)S(=O)(=O)c1ccc2ncsc2c1 (centres unmarked) [Example 128, N-[1-benzhydryl-2-[[5-[1-(1,3-benzothiazol-6-ylsulfonyl(isobutyl)amino)-2-hydroxy-ethyl]-2-thienyl]methylamino]-2-oxo-ethyl]benzamide] | 53
CC(C)CN(C(CO)c1ccc(CNC(=O)C(NC(=O)c2ccccc2)C(c2ccccc2)c2cccc3ccncc23)s1)S(=O)(=O)c1ccc2ncsc2c1 (centres unmarked) [Example 129, N-[1-[[5-[1-(1,3-benzothiazol-6-ylsulfonyl(isobutyl)amino)-2-hydroxy-ethyl]-2-thienyl]methylcarbamoyl]-2-(8-isoquinolyl)-2-phenyl-ethyl]benzamide] | 7
CC(C)CN(C(CO)c1ccc(CNC(=O)C(NC(=O)c2ccccc2)C(c2ccccc2)c2c[nH]nc2-c2ccccc2)s1)S(=O)(=O)c1ccc2ncsc2c1 (centres unmarked) [Example 130, N-[1-[[5-[1-(1,3-benzothiazol-6-ylsulfonyl(isobutyl)amino)-2-hydroxy-ethyl]-2-thienyl]methylcarbamoyl]-2-phenyl-2-(3-phenyl-1H-pyrazol-4-yl)ethyl]benzamide] | 952
CC(C)CN(C(CO)c1ccc(CNC(=O)C(NC(=O)c2ccccc2)C(c2ccccc2)c2cn[nH]c2)s1)S(=O)(=O)c1ccc2ncsc2c1 (centres unmarked) [Example 131, N-[1-[[5-[1-(1,3-benzothiazol-6-ylsulfonyl(isobutyl)amino)-2-hydroxy-ethyl]-2-thienyl]methylcarbamoyl]-2-phenyl-2-(1H-pyrazol-4-yl)ethyl]benzamide] | 79
CC(C)CN(C(CO)c1ccc(CNC(=O)C(NC(=O)c2ccccc2)C(c2ccccc2)c2cnc[nH]2)s1)S(=O)(=O)c1ccc2ncsc2c1 (centres unmarked) [Example 132, N-[1-[[5-[1-(1,3-benzothiazol-6-ylsulfonyl(isobutyl)amino)-2-hydroxy-ethyl]-2-thienyl]methylcarbamoyl]-2-(1H-imidazol-5-yl)-2-phenyl-ethyl]benzamide] | 216
CC(C)CN(C(CO)c1ccc(CNC(=O)C(NC(=O)c2ccccc2)C(c2ccccc2)c2cccc3ncccc23)s1)S(=O)(=O)c1ccc2ncsc2c1 (centres unmarked) [Example 133, N-[1-[[5-[1-(1,3-benzothiazol-6-ylsulfonyl(isobutyl)amino)-2-hydroxy-ethyl]-2-thienyl]methylcarbamoyl]-2-phenyl-2-(5-quinolyl)ethyl]benzamide] | 4.76
N-{(1S)-1-[5-((1R)-1-{(3,3-dimethylbutyl)[4-(1-methyl-1H-pyrazol-4-ylphenylsulfonyl]amino}-2-hydroxyethyl)-2-thienyl]-2,2,2-trifluoroethyl}-Nα-(methoxycarbonyl)-β-phenyl-L-phenylalaninamide [Example 115] | 20.9
